These results are taken from ChEMBL document CHEMBL1135241 (Bioorg Med Chem Lett, 2002).

The target of test [1] is Delta-type opioid receptor (Rattus norvegicus, UniProt P33533). Put plainly: Binding affinity against Opioid receptor delta 1 using [3H]DT in rat brain synaptosomes was determined. The test is classed as subcellular.
For test [2], the target named is Mu-type opioid receptor (Cavia porcellus, UniProt P97266). Put plainly: In vitro biological activity by electrically induced smooth muscle contractions in guinea pig ileum (Opioid receptor mu 1); inhibitory concentration was evaluated. The test is classed as functional, tissue-based.
Test [3] concerns the target Delta-type opioid receptor (Mus musculus, UniProt P32300). In words: In vitro biological activity by electrically induced smooth muscle contractions in mouse vas deferens (Opioid receptor delta 1); inhibitory concentration was evaluated. The test is classed as functional.
Test [4] concerns the target Mu-type opioid receptor (Rattus norvegicus, UniProt P33535). In words: Binding affinity against Opioid receptor mu 1 using [3H]DAMGO in rat brain synaptosomes was determined. The class given is subcellular.
Test [5] is described as follows: Ratio of inhibitory concentration of guinea pig ileum to mouse vas deferens was determined. The test is classed as functional.

Sequence of Mu-type opioid receptor (Cavia porcellus, UniProt P97266) (P97266 whole entry): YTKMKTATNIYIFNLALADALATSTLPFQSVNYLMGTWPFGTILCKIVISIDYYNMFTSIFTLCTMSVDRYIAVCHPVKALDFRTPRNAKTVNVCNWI
Sequence of Delta-type opioid receptor (Rattus norvegicus, UniProt P33533) (P33533 whole entry): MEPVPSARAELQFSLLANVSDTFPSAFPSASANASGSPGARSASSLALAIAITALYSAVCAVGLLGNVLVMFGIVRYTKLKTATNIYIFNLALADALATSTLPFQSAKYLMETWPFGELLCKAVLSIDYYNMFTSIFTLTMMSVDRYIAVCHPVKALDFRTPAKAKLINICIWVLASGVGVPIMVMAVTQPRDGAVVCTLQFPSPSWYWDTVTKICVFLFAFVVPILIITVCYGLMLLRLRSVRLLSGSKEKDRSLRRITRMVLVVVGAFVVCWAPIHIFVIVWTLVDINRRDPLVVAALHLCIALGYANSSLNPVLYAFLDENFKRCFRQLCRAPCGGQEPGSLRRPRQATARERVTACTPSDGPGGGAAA
Sequence of Mu-type opioid receptor (Rattus norvegicus, UniProt P33535) (P33535 whole entry): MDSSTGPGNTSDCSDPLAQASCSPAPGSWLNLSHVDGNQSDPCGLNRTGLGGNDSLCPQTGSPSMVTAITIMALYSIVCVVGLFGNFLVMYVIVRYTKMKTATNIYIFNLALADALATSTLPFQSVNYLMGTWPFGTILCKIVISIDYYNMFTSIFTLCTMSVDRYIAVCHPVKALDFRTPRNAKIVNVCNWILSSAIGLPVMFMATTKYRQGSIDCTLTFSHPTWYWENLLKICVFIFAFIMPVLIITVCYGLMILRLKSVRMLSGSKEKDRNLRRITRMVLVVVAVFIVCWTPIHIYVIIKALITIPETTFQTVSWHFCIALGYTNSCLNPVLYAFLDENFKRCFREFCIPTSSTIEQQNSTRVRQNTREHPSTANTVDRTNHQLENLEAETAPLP
Sequence of Delta-type opioid receptor (Mus musculus, UniProt P32300) (P32300 whole entry): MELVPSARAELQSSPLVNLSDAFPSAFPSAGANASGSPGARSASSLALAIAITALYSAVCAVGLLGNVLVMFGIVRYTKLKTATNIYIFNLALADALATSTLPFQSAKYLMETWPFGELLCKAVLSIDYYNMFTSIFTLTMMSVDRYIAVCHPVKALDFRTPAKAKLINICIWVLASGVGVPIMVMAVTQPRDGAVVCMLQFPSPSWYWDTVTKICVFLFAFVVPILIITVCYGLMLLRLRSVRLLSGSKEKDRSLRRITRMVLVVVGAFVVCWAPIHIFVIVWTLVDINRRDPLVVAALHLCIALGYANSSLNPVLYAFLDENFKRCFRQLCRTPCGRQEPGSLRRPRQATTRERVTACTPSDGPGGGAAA

Turning to `Cc1cccc(C)c1C[C@@H](NC(=O)[C@@H](C)NC(=O)[C@@H](N)Cc1ccc(O)cc1)C(=O)NCC(=O)N[C@@H](Cc1ccc(O)cc1)C(=O)N1CCC[C@H]1C(=O)N[C@@H](CO)C(N)=O`, the inhibitory constant (Ki) in test [1] amounted to 3300 nM. In addition, half-maximal inhibition against Mu-type opioid receptor [2] (IC50) was put at 44.4 nM.

In the case of `Cc1cccc(C)c1C[C@@H](NC(=O)[C@@H](C)NC(=O)[C@@H](N)Cc1ccc(O)cc1)C(=O)N[C@@H](CCC(=O)O)C(=O)N[C@H](C(=O)N[C@H](C(=O)NCC(N)=O)C(C)C)C(C)C`, the figures for the 50% inhibitory concentration (IC50) (in test [3]; against Mu-type opioid receptor [2]) were 145 nM and 8210 nM, respectively. Moreover, the inhibitory constant (Ki) at Mu-type opioid receptor [4] is 1960 nM; in test [1] it was 111 nM. The Ratio in test [5] worked out at 56.

As for `Cc1cccc(C)c1C[C@H](NC(=O)[C@H](C)NC(=O)[C@@H](N)Cc1ccc(O)cc1)C(=O)N[C@@H](CCC(=O)O)C(=O)N[C@H](C(=O)N[C@H](C(=O)NCC(N)=O)C(C)C)C(C)C`, the IC50 in test [3] worked out at 0.022 nM; against Mu-type opioid receptor [2] it was 6700 nM. Besides, the inhibitory constant (Ki) was 1100 nM at Mu-type opioid receptor [4] and 0.00105 nM in test [1]. Further, the Ratio in test [5] is reported as 304772.

As for `Cc1cccc(C)c1C[C@H](NC(=O)[C@H](C)NC(=O)[C@@H](N)Cc1ccc(O)cc1)C(=O)NCC(=O)N[C@@H](Cc1ccc(O)cc1)C(=O)N1CCC[C@H]1C(=O)N[C@@H](CO)C(N)=O`, in test [1], the Ki was found to be 45.7 nM. Further, half-maximal inhibition on Mu-type opioid receptor [2] (IC50) was put at 1.21 nM.

For the molecule `CC(C)[C@H](NC(=O)[C@H](CC(=O)O)NC(=O)[C@H](Cc1ccccc1)NC(=O)[C@@H](C)NC(=O)[C@@H](N)Cc1ccc(O)cc1)C(=O)N[C@H](C(=O)NCC(N)=O)C(C)C` [DELTORPHIN C], the figures for the Ki (on Mu-type opioid receptor [4]; in test [1]) were 314 nM and 0.0026 nM, respectively. At Mu-type opioid receptor [2], this molecule had an IC50 of 5440 nM.

Take `C[C@@H](NC(=O)[C@@H](N)Cc1ccc(O)cc1)C(=O)N[C@@H](Cc1ccccc1)C(=O)NCC(=O)N[C@@H](Cc1ccc(O)cc1)C(=O)N1CCC[C@H]1C(=O)N[C@@H](CO)C(N)=O` [DERMORPHIN]: the Ki at Mu-type opioid receptor [4] is 0.092 nM. This molecule returned an IC50 against Mu-type opioid receptor [2] of 3.74 nM.

For orientation: Ki means a dissociation constant, usually derived from enzyme kinetics or from competition with a known ligand. Broadly, the IC50 is the concentration that gives 50% inhibition. Read a low IC50 as greater potency.
